Read-outs that look alike come from different tables or passages of the source.
Molecular target: T1, Chk1 (Homo sapiens, UniProt O14757)
T1 construct: purchased Upstate Biotechnology
T1 sequence (O14757 1-476): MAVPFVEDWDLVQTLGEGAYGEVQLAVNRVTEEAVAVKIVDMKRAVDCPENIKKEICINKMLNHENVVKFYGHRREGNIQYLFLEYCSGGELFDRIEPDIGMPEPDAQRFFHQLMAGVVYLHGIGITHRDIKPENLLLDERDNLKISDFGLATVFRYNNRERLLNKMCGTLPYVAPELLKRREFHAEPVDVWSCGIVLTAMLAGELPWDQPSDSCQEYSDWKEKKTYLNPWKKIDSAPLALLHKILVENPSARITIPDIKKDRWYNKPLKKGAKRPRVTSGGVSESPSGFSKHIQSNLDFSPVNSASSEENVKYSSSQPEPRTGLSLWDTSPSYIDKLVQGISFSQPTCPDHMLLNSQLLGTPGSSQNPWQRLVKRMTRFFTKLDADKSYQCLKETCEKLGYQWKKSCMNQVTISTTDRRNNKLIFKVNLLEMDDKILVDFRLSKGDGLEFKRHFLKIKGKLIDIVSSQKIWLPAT
Experiment: Chk1 kinase assay: incorporation of γ-33P ATP into immobilized myelin basic protein
Format: biochemical
Conditions: read-out: Chk1 IC50
Summary of the method: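 Plates coated with MBP, then kinase reactions in Hepes pH 7.6 buffer with 10 mM MgCl2 and 1% DMSO were started by adding unlabeled plus γ-33P ATP (10 μM for Chk1 at 10 nM enzyme; 30 μM for Chk2 at 20 nM enzyme). After 1 h at room temperature, plates were washed and counted.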

[1] = Table 11, Chk1 only, class symbols A-D

IC50	IC50 (Table 11, Chk1 only)	SMILES	other results
50 to 1000 nM		CCOc1ccccc1CNC(=O)c1cccc(-c2cnc(N)c(C(=O)NC)n2)c1 [Example 246, 3-amino-6-{3-[({[2-(ethyloxy)phenyl]methyl}amino)carbonyl]phenyl}-N-methylpyrazine-2-carboxamide]	
	1000 to 10000 nM	CCNNC(=N)c1nc(-c2cccc(C(=O)NC3CCc4ccccc43)c2)cnc1N (stereo not drawn) [Example 718, 3-{5-amino-6-[(2-ethylhydrazino)(imino)methyl]pyrazin-2-yl}-N-(2,3-dihydro-1H-inden-1-yl)benzamide]	
	50 to 1000 nM	NCCCNC(=O)c1nc(-c2cccc(C(=O)NCc3ccccc3)c2)cnc1N [Example 613, 3-amino-N-(3-aminopropyl)-6-(3-{[(phenylmethyl)amino]carbonyl}phenyl)pyrazine-2-carboxamide]	
		COc1cc(CNC(=O)c2cccc(-c3cnc(N)c(C(=O)N[C@H]4CCCNC4)n3)c2)cc(OC)c1 [Example 1041, 3-amino-6-{3-[({[3,5-bis(methyloxy)phenyl]methyl}amino)carbonyl]phenyl}-N-[(3S)-piperidin-3-yl]pyrazine-2-carboxamide]	IC50 [1]: < 50 nM
		Nc1ncc(-c2cccc(C(=O)N[C@H]3c4ccccc4C[C@@H]3O)c2)nc1C(=O)N[C@H]1CCCCN(Cc2ccccc2)C1 [Example 969, 3-amino-6-[3-({[(1S,2S)-2-hydroxy-2,3-dihydro-1H-inden-1-yl]amino}carbonyl)phenyl]-N-[(3S)-1-(phenylmethyl)azepan-3-yl]pyrazine-2-carboxamide]	IC50 [1]: 1000 to 10000 nM
	50 to 1000 nM	CNC(=O)c1nc(-c2cccc(CNC(CN3CCCC3)c3ccccc3)c2)cnc1N (stereo not drawn) [Example 518, 3-amino-N-methyl-6-(3-{[(1-phenyl-2-pyrrolidin-1-ylethyl)amino]methyl}phenyl)pyrazine-2-carboxamide]	
1000 to 10000 nM		CNC(=O)c1nc(-c2ccc(NS(C)(=O)=O)cc2)cnc1N [Example 77, 3-amino-N-methyl-6-{4-[(methylsulfonyl)amino]phenyl}pyrazine-2-carboxamide]	
50 to 1000 nM		CNC(=O)c1nc(-c2cccc(C(=O)NCc3ccc(Br)cc3)c2)cnc1N [Example 304, 3-amino-6-[3-({[(4-bromophenyl)methyl]amino}carbonyl)phenyl]-N-methylpyrazine-2-carboxamide]	
		Nc1ncc(-c2cccc(C(=O)NCc3c(F)ccc(F)c3F)c2)nc1C(=O)N[C@H]1CCNC1 [Example 815, 3-amino-N-[(3S)-pyrrolidin-3-yl]-6-[3-({[(2,3,6-trifluorophenyl)methyl]amino}carbonyl)phenyl]pyrazine-2-carboxamide]	IC50 [1]: 50 to 1000 nM
		Nc1ncc(-c2cccc(OCCN3CCN(c4ccccc4)CC3)c2)nc1C(=O)N[C@H]1CCCNC1 [Example 894, 3-amino-6-(3-{[2-(4-phenylpiperazin-1-yl)ethyl]oxy}phenyl)-N-[(3S)-piperidin-3-yl]pyrazine-2-carboxamide]	IC50 [1]: < 50 nM
50 to 1000 nM		CNC(=O)c1nc(-c2cccc(CN[C@@H]3CCc4ccccc43)c2)cnc1N [Example 417, 3-amino-6-(3-{[(1R)-2,3-dihydro-1H-inden-1-ylamino]methyl}phenyl)-N-methylpyrazine-2-carboxamide]	
	1000 to 10000 nM	Nc1ncc(-c2cccc(CN[C@H]3CCc4ccccc43)c2)nc1C(=O)NCCN1CCCCC1 [Example 541, 3-amino-6-(3-{[(1S)-2,3-dihydro-1H-inden-1-ylamino]methyl}phenyl)-N-(2-piperidin-1-ylethyl)pyrazine-2-carboxamide]	
50 to 1000 nM		CNC(=O)c1nc(-c2cccc(CNC(=O)c3ccc(Cl)c(Cl)c3)c2)cnc1N [Example 320, 3-amino-6-[3-({[(3,4-dichlorophenyl)carbonyl]amino}methyl)phenyl]-N-methylpyrazine-2-carboxamide]	
50 to 1000 nM		CNC(=O)c1nc(-c2cccc(NC(=O)C3CCCC3)c2)cnc1N [Example 166, 3-amino-6-{3-[(cyclopentylcarbonyl)amino]phenyl}-N-methylpyrazine-2-carboxamide]	
	50 to 1000 nM	Nc1ncc(-c2cccc(C(=O)NC3Cc4ccccc4C3)c2)nc1C(=O)N[C@H]1CCNC1 [Example 745, 3-amino-6-{3-[(2,3-dihydro-1H-inden-2-ylamino)carbonyl]phenyl}-N-[(3S)-pyrrolidin-3-yl]pyrazine-2-carboxamide]	
	< 50 nM	CNC(=O)c1nc(-c2cccc(CNCc3ccc(-c4cccs4)cc3F)c2)cnc1N [Example 450, 3-amino-6-{3-[({[2-fluoro-4-(2-thienyl)phenyl]methyl}amino)methyl]phenyl}-N-methylpyrazine-2-carboxamide]	
1000 to 10000 nM		CCOC(=O)N1CCN(CCOc2cccc(-c3cnc(N)c(C(=O)NC)n3)c2)CC1 [Example 195, ethyl 4-{2-[(3-{5-amino-6-[(methylamino)carbonyl]pyrazin-2-yl}phenyl)oxy]ethyl}piperazine-1-carboxylate]	

IC50	IC50 (Table 11, Chk1 only)	SMILES	other results
	1000 to 10000 nM	CNC(=O)c1cc(-c2cccc(CNC3CCc4c(F)ccc(Br)c43)c2)cnc1N (stereo not drawn) [Example 521, 2-amino-5-(3-{[(7-bromo-4-fluoro-2,3-dihydro-1H-inden-1-yl)amino]methyl}phenyl)-N-methylpyridine-3-carboxamide]	
	≥ 10000 nM	CCOC(=O)C1CCN(Cc2nc(-c3cccc(C(=O)NCc4ccccc4)c3)cnc2N)CC1 [Example 695, ethyl 1-{[3-amino-6-(3-{[(phenylmethyl)amino]carbonyl}phenyl)pyrazin-2-yl]methyl}piperidine-4-carboxylate]	
1000 to 10000 nM		CCNC(=O)c1nc(-c2cccc(C(=O)OC)c2)cnc1N [Example 242, methyl 3-{5-amino-6-[(ethylamino)carbonyl]pyrazin-2-yl}benzoate]	
	50 to 1000 nM	COc1ccc(CNC(=O)c2cccc(-c3cnc(N)c(C(=O)N[C@H]4CCN(C(=O)OC(C)(C)C)C4)n3)c2)cc1 [Example 738, 1,1-dimethylethyl (3S)-3-{[(3-amino-6-{3-[({[4-(methyloxy)phenyl]methyl}amino)carbonyl]phenyl}pyrazin-2-yl)carbonyl]amino}pyrrolidine-1-carboxylate]	
50 to 1000 nM		CNC(=O)c1nc(-c2cccc(C(=O)NCc3ccccc3N3CCCCC3)c2)cnc1N [Example 355, 3-amino-N-methyl-6-[3-({[(2-piperidin-1-ylphenyl)methyl]amino}carbonyl)phenyl]pyrazine-2-carboxamide]	
	50 to 1000 nM	Nc1ncc(-c2cccc(C(=O)N3CCc4ccccc4C3)c2)nc1C(=O)N[C@H]1CCNC1 [Example 714, 3-amino-6-[3-(3,4-dihydroisoquinolin-2(1H)-ylcarbonyl)phenyl]-N-[(3S)-pyrrolidin-3-yl]pyrazine-2-carboxamide]	
50 to 1000 nM		CNC(=O)c1nc(-c2cccc(CNC(=O)Cc3ccc(Cl)cc3)c2)cnc1N [Example 331, 3-amino-6-[3-({[(4-chlorophenyl)acetyl]amino}methyl)phenyl]-N-methylpyrazine-2-carboxamide]	
50 to 1000 nM		CNC(=O)c1nc(-c2cccc(C(=O)NCc3cc(OC)cc(OC)c3)c2)cnc1N [Example 254, 3-amino-6-{3-[({[3,5-bis(methyloxy)phenyl]methyl}amino)carbonyl]phenyl}-N-methylpyrazine-2-carboxamide]	
		Nc1ncc(-c2cccc(CNC(=O)Nc3ccc4ccccc4c3)c2)nc1C(=O)N[C@H]1CCCNC1 [Example 896]	IC50 [1]: < 50 nM
50 to 1000 nM		CNC(=O)c1nc(-c2cccc(NC(=O)c3ccc(Cl)cc3)c2)cnc1N [Example 111, 3-amino-6-(3-{[(4-chlorophenyl)carbonyl]amino}phenyl)-N-methylpyrazine-2-carboxamide]	
		Nc1ncc(-c2cccc(CN[C@@H]3c4ccccc4C[C@@H]3O)c2)nc1C(=O)N[C@H]1CCCNC1 [Example 968, 3-amino-6-[3-({[(1R,2S)-2-hydroxy-2,3-dihydro-1H-inden-1-yl]amino}methyl)phenyl]-N-[(3S)-piperidin-3-yl]pyrazin-2-carboxamide]	IC50 [1]: < 50 nM
	50 to 1000 nM	Nc1ncc(-c2cccc(C(=O)NCc3ccccc3)c2)nc1C(=O)N[C@H]1CCN(Cc2ccccn2)C1 [Example 696, 3-amino-6-(3-{[(phenylmethyl)amino]carbonyl}phenyl)-N-[(3S)-1-(pyridin-2-ylmethyl)pyrrolidin-3-yl]pyrazine-2-carboxamide]	
		Nc1ncc(-c2cccc(C(=O)N[C@H]3CCc4ccccc43)c2)nc1C(=O)N[C@H]1CCCCN(Cc2ccccc2)C1 [Example 972, 3-amino-6-(3-{[(1S)-2,3-dihydro-1H-inden-1-ylamino]carbonyl}phenyl)-N-[(3S)-1-(phenylmethyl)azepan-3-yl]pyrazine-2-carboxamide]	IC50 [1]: 50 to 1000 nM
	50 to 1000 nM	Nc1ncc(-c2cccc(C(=O)NCc3ccccn3)c2)nc1C(=O)N[C@H]1CCNC1 [Example 761, 3-amino-6-(3-{[(pyridin-2-ylmethyl)amino]carbonyl}phenyl)-N-[(3S)-pyrrolidin-3-yl]pyrazine-2-carboxamide]	
	1000 to 10000 nM	CNC(=O)c1nc(-c2cnc3ccccc3c2)cnc1N [Example 503, 3-amino-N-methyl-6-quinolin-3-ylpyrazine-2-carboxamide]	
< 50 nM		CNC(=O)c1nc(-c2cccc(C(=O)NNc3ccccc3)c2)cnc1N [Example 328, 3-amino-N-methyl-6-{3-[(2-phenylhydrazino)carbonyl]phenyl}pyrazine-2-carboxamide]	

— patent US7704995B2 (Exelixis, Inc., priority 2003, dated 2010)
